A short description of data set [1]: In Vitro Phospholipidosis Assay (Assay 4), Nile red staining. In kind it is cell-based. The conditions noted are these: human, first effect concentration, U937 cells, read-out: Phospholipidosis FEC IC50 μM (assay 4). Here is the method: In Vitro Phospholipidosis Assay (Assay 4)
The phospholipidogenic potential of test compounds was assayed using the human hematopoetic U937 cell line. The test principle was to analyze the phospholipid content by staining the cells with the fluorescent dye Nile red.
U937 cells were seeded into cell culture plates at 0.5×10^6 cells/mL in RPMI medium containing 10% FBS, 1% DMSO, and 0.005% gentamicin. The cells were then cultivated with or without different concentrations of test compounds for 48 h under standard culture conditions.
For harvesting the cells were centrifuged at 130×g for 4 min and washed once with PBS. Then 2×0.5 mL cell suspension was prepared for non-fixed cell measurement (0.5 mL for propidium iodide (PI) viability measurement and 0.5 mL for Nile red measurement).
The remaining cells were fixed with 3.7% formaldehyde for 30 min. After a further centrifugation step cells were resuspended with 1.3 mL Nile red working solution (1 μg/mL) and incubated for 5 min at rt. The cell suspension was then washed twice with 3 mL PBS and centrifuged with 130×g for 4 min. The supernatant was discarded and the cells were resuspended with 0.5 mL PBS and kept for flow cytometry measurement. For Nile red staining of the 0.5 mL non-fixed cell samples, 50 μL of a ready to use Nile red solution (10 μg/mL) were added per sample. Samples were kept on ice for 5 min. Thereafter, they were washed once with 4 mL PBS (4° C., 250×g for 8 min) and finally resuspended in 400 μL PBS and kept for flow cytometry measurement.
For the viability measurement, 12.5 μL of the ready to use PI solution (10 μg/mL) were added to the 0.5 mL non-fixed cell suspension. After 15 min of incubation on ice, the samples were measured by flow cytometry using a Coulter Epics XL/MCL flow cytometer.
The viability of the cells of each sample was determined by flow cytometry measurement of the PI content at channel 2 (568-590 nm). Cut-off gates for the fluorescence-dependent differentiation between live and dead cells were defined based on the analysis of cell culture medium control samples.
Only samples with a cell viability of >=90% relative to control samples were analyzed for phospholipidosis. For that, each Nile red sample (non-fixed and fixed samples) was measured by flow cytometry at channel 1 (504-541 nm) and channel 4 (660-680 nm).
For each channel, relative Nile red fluorescence intensity of a test sample was calculated compared to control samples and expressed as percentage of control fluorescence intensity. The assessment of the phospholipidogenic potential and the first effect concentration (FEC) of a test compound was done manually based on the fluorescence intensities at both wavelengths for the fixed cells as well as for the non-fixed cells.

The test system of data set [2] is brain amyloid peptides Aβ1-x. The data set is described as follows: Rat Brain Aβ Lowering Assay (Assay 5). The class given is in vivo. The settings on record: 3 hrs after dosing. Here is the method:
Rat Brain Aβ Lowering Assay (Assay 5)
The animals were sacrificed 3 hrs after dosing, and brains were excised, dissected into cerebellum and left and right cerebra and flash-frozen in liquid nitrogen.
The cerebrum was homogenized (5 volumes per weight) in 20 mM Tris-HCL, pH 8.5, 0.2% Triton-X100 supplemented with protease inhibitors (complete, Roche Applied Science) at 4° C. using a glass Dounce homogenizer. The homogenate was centrifuged at 120,000×g for 60 min at 4° C., and the supernatant was collected and analyzed for Ab1-x using immunoassay with chemiluminescent detection (Meso-Scale Discovery, Rockville, Md. (MSD)).
Streptavidin 96-well plates (MSD) were pre-blocked with 5% Blocker A solution (MSD) for 1 hr at rt on an orbital shaker and washed 4 times with phosphate buffered saline (PBS). The wells were pre-coated with 20 ng/well of biotinylated antibody SIG-39155 (Clone M3.2, specific for amino acids 10-15 of the rodent Aβ) for 1 hr at rt and washed 4 times with PBS. For Aβ1-x analysis, 25 μl of either the cleared brain lysates or Aβ1-40 standards (8-500 pg/ml, with 2× increment) were incubated for 1 hr at rt with constant shaking. The wells were washed 4 times with PBS, and 25 μl of the detection antibody (Sulfo-TAG labeled anti-Aβ40 antibody supplied by MSD) was added and incubated for 1 hr at rt. After 4 washes with PBS, 150 μl of the chemiluminescence detection reagent (Read Buffer T, MSD) was added, and the plate was read on an MSD Sector Imager 6000 instrument. The calibration curve was fit into a non-linear four-parameter regression model, and the Aβ1-x concentrations were calculated for each well containing the cleared brain lysates. The percent of Aβ lowering was calculated based on the difference with the average Aβ concentration obtained for the brains from the animals treated with vehicle alone.

In general, IC50 refers to the concentration that gives 50% inhibition.

The structures appear in SMILES notation.

Regarding `CO[C@H]1[C@H](C)C[C@@]2(Cc3ccc(C#N)cc3[C@]23N=C(N)N(C[C@@H]2CCO2)C3=O)C[C@@H]1C` (stereo in doubt) [Example 18], the IC50 at 48 h in data set [1] is greater than 400 µM. For the same molecule, the “% Aβ Reduction” value in data set [2] (single oral dose 25 mg/kg) was 56%.
As to `CC[C@@H]1C[C@]2(CC[C@H]1OC)Cc1ccc(C#N)cc1[C@]21N=C(N)N(CC2CCOCC2)C1=O` [Example 2], the IC50 at 48 h in data set [1] was found to be 200 µM. Further, the “% Aβ Reduction” value in data set [2] (single oral dose 30 mg/kg) is recorded as 42%.
In the case of `CC[C@@H]1C[C@]2(CC[C@H]1OC)Cc1ccc(C#N)cc1[C@]21N=C(N)N(CC2(F)CCOCC2)C1=O` [Example 4], in data set [1], the IC50 at 48 h was greater than 400 µM. In data set [2] (single oral dose 25 mg/kg), the “% Aβ Reduction” value is on record as 75%.
Taken in the same sequence, the figures for `CO[C@H]1CC[C@@]2(Cc3ccc(C#N)cc3[C@]23N=C(N)N(CC2(C)COC2)C3=O)C[C@@H]1C` [Example 8] were greater than 200 µM and 37%.
Taken in the same sequence, the figures for `CO[C@H]1CC[C@@]2(Cc3ccc(C#N)cc3[C@]23N=C(N)N(Cc2ccncn2)C3=O)C[C@@H]1C` [Example 9] were 400 µM and 37%.
Regarding `CO[C@H]1[C@H](C)C[C@@]2(Cc3ccc(C#N)cc3[C@]23N=C(N)N(C2COC2)C3=O)C[C@@H]1C` [Example 12], in data set [1], the IC50 at 48 h amounted to 400 µM. For the same molecule, the “% Aβ Reduction” value in data set [2] (single oral dose 25 mg/kg) was 39%.
Regarding `CO[C@H]1[C@H](C)C[C@@]2(Cc3ccc(C#N)cc3[C@]23N=C(N)N(CC2COC2)C3=O)C[C@@H]1C` [Example 13], the IC50 at 48 h in data set [1] was 200 µM. Besides, the “% Aβ Reduction” value in data set [2] (single oral dose 30 mg/kg) is reported as 47%.
In the case of `CO[C@H]1[C@H](C)C[C@@]2(Cc3ccc(C#N)cc3[C@]23N=C(N)N(C[C@H]2CCCO2)C3=O)C[C@@H]1C` [Example 14], in data set [1], the half-maximal inhibitory concentration (IC50) at 48 h was greater than 200 µM. Also, the “% Aβ Reduction” value in data set [2] (single oral dose 25 mg/kg) was found to be 67%.
Taken in the same sequence, the figures for `CO[C@H]1[C@H](C)C[C@@]2(Cc3ccc(C#N)cc3[C@]23N=C(N)N(C[C@@H]2CCCO2)C3=O)C[C@@H]1C` [Example 15] were 200 µM and 62%.
On the same counts, the results for `CO[C@H]1[C@H](C)C[C@@]2(Cc3ccc(C#N)cc3[C@]23N=C(N)N(CC(C)(C)F)C3=O)C[C@@H]1C` [Example 17] are greater than 200 µM and 70%.
With `CO[C@H]1[C@H](C)C[C@@]2(Cc3ccc(C#N)cc3[C@]23N=C(N)N(C[C@@H]2COCCO2)C3=O)C[C@@H]1C` [Example 21], the IC50 at 48 h in data set [1] worked out at 400 µM. Moreover, in data set [2] (single oral dose 50 mg/kg), the “% Aβ Reduction” value is 59%.
As for `CO[C@H]1[C@H](C)C[C@@]2(Cc3ccc(C#N)cc3[C@]23N=C(N)N(C[C@H]2COCCO2)C3=O)C[C@@H]1C` [Example 22], the half-inhibitory concentration (IC50) at 48 h in data set [1] is greater than 400 µM. The “% Aβ Reduction” value in data set [2] (single oral dose 12.5 mg/kg) is reported as 45%.
In the case of `CO[C@H]1[C@H](C)C[C@@]2(Cc3ccc(C#N)cc3[C@]23N=C(N)N(CC2(F)CCOCC2)C3=O)C[C@@H]1C` [Example 23], in data set [1], the concentration for half-maximal inhibition (IC50) at 48 h is greater than 200 µM. In addition, the “% Aβ Reduction” value in data set [2] (single oral dose 25 mg/kg) is recorded as 68%.
As for `CC[C@@H]1C[C@@]2(Cc3ccc(C#N)cc3[C@]23N=C(N)N(CC(C)(C)F)C3=O)C[C@H](C)[C@H]1OC` [Example 26], the half-inhibitory concentration (IC50) at 48 h in data set [1] is greater than 200 µM. In addition, in data set [2] (single oral dose 25 mg/kg), the “% Aβ Reduction” value is recorded as 71%.

For the origin of these results see patent US8981112B2, “Inhibitors of β-secretase” (Boehringer Ingelheim International GmbH, priority 2012, dated 2015).
